Assay results from US3947456A, “Substituted 4-phenyl isoquinolines” (Hoffman-La Roche Inc., priority 1970, dated 1976).
Like-named read-outs stand apart in the source and are kept apart here.

How the values were obtained:
[1] = test system: rats; assay: Anti-depressant activity: antagonism of symptoms induced by 2-ethyl-2-hydroxy-3-isobutyl-9,10-dimethoxy-1,3,4,6,7,11b-hexahydro-2H-benzo (a) quinolizine hydrochloride (motility, sensitivity to stimulus, seeking behavior, suppression of ptosis); format: in vivo; settings: 3 doses of 50 mg/kg p.o., benzoquinolizine 20 mg/kg s.c. 6 h after last dose, amitriptyline = 100 percent
Experimental: The compounds of formula I above and their pharmaceutically acceptable salts are extremely effective and active as anti-depressant agents. Their useful anti-depressant activity is shown in warm-blooded animals utilizing standard test procedures. […] Six hours after the last administration the animals received 20 mg/kg of 2-ethyl-2-hydroxy-3-isobutyl-9,10-dimethoxy-1,3,4,6,7,11b-hexahydro-2H-benzo (a) quinolizine hydrochloride injected subcutaneously. The same dosage was administered to a group of 5-non-pretreated rats. The evaluation includes central and peripheral symptoms such as are characteristic for anti-depressants (See Annals of the New York Academy of Science, Vol. 96, page 279, 1962). Especially observed were the motility (climbing), sensitivity to stimulus, seeking behavior as well as the suppression of ptosis. These changes were expressed in numbers according to an evaluation scheme.
The percentage numbers stated relate to the value obtained with amitriptyline (amitriptyline = 100 percent).

[2] = Acute toxicity (LD50), 24 hour values; settings: mouse, in vivo, mice, 24 hour value
Experimental: The low toxicity of the compounds of formula I is also illustrated by the acute toxicity (LD50) of the compounds set out in Table I. The figures set forth in Table I as to acute toxicity refer to toxicity tests performed in mice and are the 24 hour values.

| SMILES | Activity in % of the activity of amitriptyline [1] | LD50 at 24 h ([2]; iv, i.v., read-out: LD50 i.v.) | LD50 at 24 h ([2]; po, p.o., read-out: LD50 p.o.) | LD50 at 24 h ([2]; sc, s.c., read-out: LD50 s.c.) |
| --- | --- | --- | --- | --- |
| COc1ccc2c(c1)CN(C)CC2c1ccc(Cl)c(Cl)c1 (stereo not drawn) [4-(3,4-dichlorophenyl)-1,2,3,4-tetrahydro-7-methoxy-2-methylisoquinoline] | about 128% | 125 to 250 mg/kg | 1000 to 2000 mg/kg | 500 to 1000 mg/kg |
| CN1Cc2cc(O)ccc2C(c2ccc(Cl)c(Cl)c2)C1 (stereo not drawn) [4-(3,4-dichlorophenyl)-1,2,3,4-tetrahydro-2-methyl-7-isoquinolinol] | about 158% | 30 to 60 mg/kg | 500 to 1000 mg/kg | 250 to 500 mg/kg |
| CN1Cc2cc(O)ccc2C(c2ccc(Cl)cc2)C1 (stereo not drawn) [4-(4-chlorophenyl)-1,2,3,4-tetrahydro-2-methyl-7-isoquinolinol] | about 114% | 30 to 60 mg/kg | 1000 to 2000 mg/kg | 500 to 1000 mg/kg |
